Each compound was assayed against GABA-B receptor (Rattus norvegicus (Rat), UniProt O88871+Q9Z0U4) (assay: [35S]GTPgS binding assay, rat cortical membranes, in presence of EC25 GABA). Details: rat brain cortex membranes; in presence of 1 μM GABA (EC25); positive allosteric modulation.
Type: biochemical
Method: Preparation of Rat Brain Membranes for Native Receptor Assays
Membranes from rat brain cortex were prepared as described in detail by Olpe et al. and stored at concentrations of 1.66 mg/mL protein at −80° C. until required. (Olpe, H.-R, et al. Eur J Pharmacol 1990; 187: 27-38).
[^35S] GTPgS Binding Assay
The composition of the assay mixtures [in a final volume of 200 μL in 96-well U-bottom plates (Greiner) was as follows: 50 mM Tris-HCl buffer, pH 7.7, 10 mM MgCl2, 0.2 mM EGTA, 2 mM CaCl2, 100 mM NaCl, 20 µM guanosine 5′-diphosphate (Sigma), 0.3 nM [^35S]GTPgS (1250 Ci/mmol (PerkinElmer)), and the test compounds at increasing concentrations (from 10 nM up to […]), […] of rat cortical membranes, and a concentration of […], that has been observed in previous experiments to correspond to the EC25, a concentration that gives 25% of the maximal response of GABA. The samples were incubated at room temperature for 60 minutes on a shaker. The incubation was stopped by rapid vacuum filtration over glass-fiber filter plates (UniFilter-96 well, GF/B membrane plates, PerkinElmer) using a 96-well plate harvester (TOMTEK© Harvester). The UniFilter plate was washed five times with ice-cold wash buffer (50 mM Tris-HCl buffer, pH 7.7, 10 mM MgCl2, and 100 mM NaCl. After filtration the plate was dried for 90 minutes at 55° C. The plates were closed on the bottom with black sealing membranes, and liquid scintillation cocktail (35 μL, Betaplate Scint, PerkinElmer) was added to each well. After sealing the top of the plate, an additional incubation step of 90 minutes at room temperature followed before measuring the plate. The amount of membrane-bound [^35S]GTPgS was measured using a 96-well plate reader (Microbeta®, PerkinElmer). Nonspecific binding was measured in the presence of unlabeled 10 μM of GTPgS (Millipore) and without GABA. Basal binding was measured in the absence of 1 μM GABA, and maximal binding was measured in the presence of GABA using 1 mM GABA concentrations.
Data analysis. The concentration-response curves of compounds of the present disclosure in the presence of EC25 of GABA-B receptor agonist were generated using the GraphPad Prism® program (GraphPad Software, San Diego, Calif.). Data was normalized using basal binding as 0% and maximal binding as 100%. The curves were fitted by nonlinear regression allowing determination of EC50 values from sigmoidal dose-response curves. Each curve was performed using triplicate sample per date point and 10 concentrations.

GABA-B receptor, sequence (Q9Z0U4 17-960): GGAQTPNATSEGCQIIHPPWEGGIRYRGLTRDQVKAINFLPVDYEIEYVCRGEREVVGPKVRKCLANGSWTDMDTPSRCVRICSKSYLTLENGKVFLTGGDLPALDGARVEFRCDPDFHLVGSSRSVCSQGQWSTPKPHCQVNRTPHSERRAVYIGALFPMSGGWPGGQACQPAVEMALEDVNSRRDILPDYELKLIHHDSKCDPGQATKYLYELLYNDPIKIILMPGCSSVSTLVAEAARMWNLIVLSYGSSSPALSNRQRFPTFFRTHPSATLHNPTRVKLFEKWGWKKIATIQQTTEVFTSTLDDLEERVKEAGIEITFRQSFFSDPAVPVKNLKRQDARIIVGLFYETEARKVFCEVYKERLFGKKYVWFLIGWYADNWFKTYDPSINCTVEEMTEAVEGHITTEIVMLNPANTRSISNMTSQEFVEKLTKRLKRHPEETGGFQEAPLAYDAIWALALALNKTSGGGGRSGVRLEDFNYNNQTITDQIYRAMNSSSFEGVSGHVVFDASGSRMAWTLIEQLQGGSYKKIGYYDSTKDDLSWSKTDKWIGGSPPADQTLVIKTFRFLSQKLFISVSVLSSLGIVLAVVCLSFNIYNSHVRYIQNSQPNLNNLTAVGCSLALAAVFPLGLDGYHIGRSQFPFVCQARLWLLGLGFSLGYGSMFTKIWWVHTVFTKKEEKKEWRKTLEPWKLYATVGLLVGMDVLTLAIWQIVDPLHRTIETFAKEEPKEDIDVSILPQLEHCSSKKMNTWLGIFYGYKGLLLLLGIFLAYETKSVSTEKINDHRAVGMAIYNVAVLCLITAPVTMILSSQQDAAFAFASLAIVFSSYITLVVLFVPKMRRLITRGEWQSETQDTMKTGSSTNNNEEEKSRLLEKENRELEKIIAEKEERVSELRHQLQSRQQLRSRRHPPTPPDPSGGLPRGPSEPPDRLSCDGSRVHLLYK
GABA-B receptor, sequence (O88871 41-940): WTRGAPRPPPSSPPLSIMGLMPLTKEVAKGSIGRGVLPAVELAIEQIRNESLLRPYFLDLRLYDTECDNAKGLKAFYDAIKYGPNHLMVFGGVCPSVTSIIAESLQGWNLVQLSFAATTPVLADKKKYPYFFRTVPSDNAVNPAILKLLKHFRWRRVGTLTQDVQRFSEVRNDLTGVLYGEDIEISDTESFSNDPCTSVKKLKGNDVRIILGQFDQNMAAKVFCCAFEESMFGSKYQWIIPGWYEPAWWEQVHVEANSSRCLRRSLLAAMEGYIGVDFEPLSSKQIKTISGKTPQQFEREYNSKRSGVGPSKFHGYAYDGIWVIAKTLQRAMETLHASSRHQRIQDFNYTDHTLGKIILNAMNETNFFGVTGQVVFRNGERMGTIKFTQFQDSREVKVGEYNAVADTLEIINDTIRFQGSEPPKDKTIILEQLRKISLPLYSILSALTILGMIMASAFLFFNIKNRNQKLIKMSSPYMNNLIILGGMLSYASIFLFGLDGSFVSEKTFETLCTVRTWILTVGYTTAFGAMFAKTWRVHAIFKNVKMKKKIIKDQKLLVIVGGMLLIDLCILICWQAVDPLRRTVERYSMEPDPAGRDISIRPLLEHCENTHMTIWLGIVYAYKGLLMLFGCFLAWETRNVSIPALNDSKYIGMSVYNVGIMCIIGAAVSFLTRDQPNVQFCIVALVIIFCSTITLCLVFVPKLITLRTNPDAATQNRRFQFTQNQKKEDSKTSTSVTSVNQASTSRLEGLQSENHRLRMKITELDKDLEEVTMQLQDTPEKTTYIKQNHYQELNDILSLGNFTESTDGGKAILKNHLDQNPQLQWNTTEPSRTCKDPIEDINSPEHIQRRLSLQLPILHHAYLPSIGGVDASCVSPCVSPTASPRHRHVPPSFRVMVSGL

Row | SMILES | EC50 [µM]
1 | CC(=O)N[C@@H]1CCN(c2cc(C)nc3cc(Cc4ccc(Cl)cc4)nn23)C1 [Example 1-11, N-{(3R)-1-[2-(4-chlorobenzyl)-5-methylpyrazolo[1,5-a]pyrimidin-7-yl]pyrrolidin-3-yl}acetamide] | > 10
2 | Cc1cc(N2CCC2)n2nc(Cc3ccc(Cl)cc3)cc2n1 [Example 1-13, 7-(azetidin-1-yl)-2-(4-chlorobenzyl)-5-methylpyrazolo[1,5-a]pyrimidine] | > 10
3 | CCCC(c1ccc(Cl)cc1)c1cc2nc(C)cc(N3CCCCC3CCO)n2n1 (centres unmarked) [Example 5-1, 2-(1-{2-[1-(4-chlorophenyl)butyl]-5-methylpyrazolo[1,5-a]pyrimidin-7-yl}piperidin-2-yl)ethanol] | 0.003
4 | CCC(c1ccc(Cl)cc1)c1cc2nc(C)cc(N3CCCC(F)(F)C3)n2n1 (centres unmarked) [Example 3-2, 2-[1-(4-chlorophenyl)propyl]-7-(3,3-difluoropiperidin-1-yl)-5-methylpyrazolo[1,5-a]pyrimidine] | 0.014
5 | Cc1cc(N2CCC[C@H](CO)C2)n2nc(Cc3ccc(Cl)cc3)cc2n1 [Example 1-8, {(3S)-1-[2-(4-chlorobenzyl)-5-methylpyrazolo[1,5-a]pyrimidin-7-yl]piperidin-3-yl}methanol] | 1.3
6 | Cc1cc(N2CCCC2)n2nc(Cc3ccc(Cl)cc3)cc2n1 [Example 1-12, 2-(4-chlorobenzyl)-5-methyl-7-(pyrrolidin-1-yl)pyrazolo[1,5-a]pyrimidine] | 3.97
7 | Cc1cc(N2CCCCC2CCO)n2nc(C(C)c3ccc(Cl)cc3)cc2n1 (centres unmarked) [Example 2-1, 2-(1-{2-[1-(4-chlorophenyl)ethyl]-5-methylpyrazolo[1,5-a]pyrimidin-7-yl}piperidin-2-yl)ethanol] | 0.118
8 | Cc1cc(N[C@H](C)C(F)(F)F)n2nc(Cc3ccc(Cl)cc3)cc2n1 [Example 1-20, 2-(4-chlorobenzyl)-5-methyl-N-[(2R)-1,1,1-trifluoropropan-2-yl]pyrazolo[1,5-a]pyrimidin-7-amine] | 2.15
9 | Cc1cc(N2CCCC(F)C2)n2nc(C(C)c3ccc(Cl)cc3)cc2n1 (centres unmarked) [Example 2-6, 2-[1-(4-chlorophenyl)ethyl]-7-(3-fluoropiperidin-1-yl)-5-methylpyrazolo[1,5-a]pyrimidine] | 0.242
10 | Cc1cc(NC2(C(F)(F)F)CC2)n2nc(Cc3ccc(Cl)cc3)cc2n1 [Example 1-15, 2-(4-chlorobenzyl)-5-methyl-N-[1-(trifluoromethyl)cyclopropyl]pyrazolo[1,5-a]pyrimidin-7-amine] | 1.18
11 | Cc1cc(N2CC3(CCOCC3)C2)n2nc(C(C)c3ccc(Cl)cc3)cc2n1 (centres unmarked) [Example 2-13, 2-[1-(4-chlorophenyl)ethyl]-5-methyl-7-(7-oxa-2-azaspiro[3.5]non-2-yl)pyrazolo[1,5-a]pyrimidine] | 0.446
12 | Cc1cc(N2CCCCC2CCO)n2nc(C(c3ccc(Cl)cc3)C(C)C)cc2n1 (centres unmarked) [Example 4-1, 2-(1-{2-[1-(4-chlorophenyl)-2-methylpropyl]-5-methylpyrazolo[1,5-a]pyrimidin-7-yl}piperidin-2-yl)ethanol] | 0.005
13 | Cc1cc(N[C@H]2C[C@@H](O)C2)n2nc(C(C)c3ccc(Cl)cc3)cc2n1 (relative stereo) [Example 2-18, cis-3-({2-[1-(4-chlorophenyl)ethyl]-5-methylpyrazolo[1,5-a]pyrimidin-7-yl}amino)cyclobutanol] | 0.499
14 | Cc1cc(NC(C)(C)C)n2nc(Cc3ccc(Cl)cc3)cc2n1 [Example 1-14, N-tert-butyl-2-(4-chlorobenzyl)-5-methylpyrazolo[1,5-a]pyrimidin-7-amine] | 1.03
15 | Cc1cc(N[C@@H](C)C(F)(F)F)n2nc(Cc3ccc(Cl)cc3)cc2n1 [Example 1-18, 2-(4-chlorobenzyl)-5-methyl-N-[(2S)-1,1,1-trifluoropropan-2-yl]pyrazolo[1,5-a]pyrimidin-7-amine] | 2.69
16 | CC(=O)N[C@@H]1CCN(c2cc(C)nc3cc(C(C)c4ccc(Cl)cc4)nn23)C1 (stereo partly drawn) [Example 2-23, N-[(3R)-1-{2-[1-(4-chlorophenyl)ethyl]-5-methylpyrazolo[1,5-a]pyrimidin-7-yl}pyrrolidin-3-yl]acetamide] | 2.73
17 | CCCC(c1ccc(Cl)cc1)c1cc2nc(C)cc(N3CCCC(F)(F)C3)n2n1 (centres unmarked) [Example 5-2, 2-[1-(4-chlorophenyl)butyl]-7-(3,3-difluoropiperidin-1-yl)-5-methylpyrazolo[1,5-a]pyrimidine] | 0.007
18 | Cc1cc(N2CCCC(F)(F)C2)n2nc(C(c3ccc(Cl)cc3)C(C)C)cc2n1 (centres unmarked) [Example 4-2, 2-[1-(4-chlorophenyl)-2-methylpropyl]-7-(3,3-difluoropiperidin-1-yl)-5-methylpyrazolo[1,5-a]pyrimidine] | 0.009

Other lines, results leading:

Row | EC50 [µM] | SMILES
19 | 0.344 | Cc1cc(N2CCCCC2CO)n2nc(C(C)c3ccc(C(F)(F)F)cc3)cc2n1 (centres unmarked) [Example 8-9, [1-(5-methyl-2-{1-[4-(trifluoromethyl)phenyl]ethyl}pyrazolo[1,5-a]pyrimidin-7-yl)piperidin-2-yl]methanol]
20 | 1.66 | Cc1cc(N2CCC(F)(F)C2)n2nc(C(C)c3ccc(Cl)cn3)cc2n1 (centres unmarked) [Example 9-5, 2-[1-(5-chloropyridin-2-yl)ethyl]-7-(3,3-difluoropyrrolidin-1-yl)-5-methylpyrazolo[1,5-a]pyrimidine]
21 | 5.67 | Cc1cc(N2CCCCC2CCO)n2nc(Cc3cccc(Cl)c3)cc2n1 (centres unmarked) [Example 12-1, 2-{1-[2-(3-chlorobenzyl)-5-methylpyrazolo[1,5-a]pyrimidin-7-yl]piperidin-2-yl}ethanol]
22 | > 10 | Cc1cc(N2CC[C@H]2C(=O)O)n2nc(C(C)c3ccc(C(F)(F)F)cc3)cc2n1 (stereo partly drawn) [Example 8-10, (2S)-1-(5-methyl-2-{1-[4-(trifluoromethyl)phenyl]ethyl}pyrazolo[1,5-a]pyrimidin-7-yl)azetidine-2-carboxylic acid]
23 | 3.51 | Cc1cc(N2CCC[C@H](NS(C)(=O)=O)C2)n2nc(Cc3ccc(Cl)cc3)cc2n1 [Example 11-1]
24 | 0.771 | Cc1cc(N2CCC(C(N)=O)C2)n2nc(C(C)c3ccc(C(F)(F)F)cc3)cc2n1 (centres unmarked) [Example 8-22, 1-(5-methyl-2-{1-[4-(trifluoromethyl)phenyl]ethyl}pyrazolo[1,5-a]pyrimidin-7-yl)pyrrolidine-3-carboxamide]
25 | > 10 | CC(=O)N[C@@H]1CCN(c2cc(C)nc3cc(C(C)c4ccc(Cl)cn4)nn23)C1 (stereo partly drawn) [Example 9-10, N-[(3R)-1-{2-[1-(5-chloropyridin-2-yl)ethyl]-5-methylpyrazolo[1,5-a]pyrimidin-7-yl}pyrrolidin-3-yl]acetamide]
26 | 1.32 | Cc1cc(NC2(C)CC2)n2nc(C(C)c3ccc(Cl)cn3)cc2n1 (centres unmarked) [Example 9-7, 2-[1-(5-chloropyridin-2-yl)ethyl]-5-methyl-N-(1-methylcyclopropyl)pyrazolo[1,5-a]pyrimidin-7-amine]
27 | 2 | CC(=O)N[C@H]1CCN(c2cc(C)nc3cc(C(C)c4ccc(C(F)(F)F)cc4)nn23)C1 (stereo partly drawn) [Example 8-7, N-[(3S)-1-(5-methyl-2-{1-[4-(trifluoromethyl)phenyl]ethyl}pyrazolo[1,5-a]pyrimidin-7-yl)pyrrolidin-3-yl]acetamide]
28 | 0.274 | Cc1cc(NC(C)(C)C)n2nc(C(C)c3ccc(C(F)(F)F)cc3)cc2n1 (centres unmarked) [Example 8-19, N-tert-butyl-5-methyl-2-{1-[4-(trifluoromethyl)phenyl]ethyl}pyrazolo[1,5-a]pyrimidin-7-amine]
29 | 0.087 | Cc1cc(N2CCCCC2CCO)n2nc(C(C)c3ccc(C(F)(F)F)cc3)cc2n1 (centres unmarked) [Example 8-2, 2-[1-(5-methyl-2-{1-[4-(trifluoromethyl)phenyl]ethyl}pyrazolo[1,5-a]pyrimidin-7-yl)piperidin-2-yl]ethanol]
30 | 0.798 | Cc1cc(NC(C)(C)C)n2nc(C(C)c3ccc(Cl)cn3)cc2n1 (centres unmarked) [Example 9-6, N-tert-butyl-2-[1-(5-chloropyridin-2-yl)ethyl]-5-methylpyrazolo[1,5-a]pyrimidin-7-amine]
31 | 1.6 | Cc1cc(NC2CC(F)(F)C2)n2nc(C(C)c3ccc(Cl)cn3)cc2n1 (centres unmarked) [Example 9-2, 2-[1-(5-chloropyridin-2-yl)ethyl]-N-(3,3-difluorocyclobutyl)-5-methylpyrazolo[1,5-a]pyrimidin-7-amine]
32 | 0.746 | Cc1cc(NC2(C)CC2)n2nc(C(C)c3ccc(C(F)(F)F)cc3)cc2n1 (centres unmarked) [Example 8-8, 5-methyl-N-(1-methylcyclopropyl)-2-{1-[4-(trifluoromethyl)phenyl]ethyl}pyrazolo[1,5-a]pyrimidin-7-amine]

— US9828381B2, “Substituted pyrazolopyrimidines and method of use” (AbbVie Deutschland GmbH & Co. KG, priority 2015, dated 2017)
